This test relates to SHV beta-lactamase in E. coli SHV-11. As to the kind of experiment: Western blot of inclusion body fraction. Format: cell-based, Escherichia coli. Conditions: 12 μM peptide in PBS, 120 min. An excerpt:
Fig. 5 Induction of aggregation in cells. […] A single representative image is shown. […] A single representative image is shown. C SIM and brightfield images as in A, but for E. coli ATCC strain. […] A single representative image is shown. […] A single representative blot is shown. […] The corrected P-values were 0.6091, 0.0029, 0.0027, <0.0001, and 0.9992, from left to right. […] Statistics exactly as in E, but from 3 independent experiments. The corrected P-values were 0.8753, 0.9796, 0.0001, 0.0003, and 0.0003, from left to right. Source data are provided as a Source Data file.
Overnight cultures of bacteria were centrifuged for 30 min at 4000 × g and cells were washed with physiological water (NaCl 0.9%). Bacterial cells were treated by peptide at the appropriate concentration for at least 2 h at 37 C. The bacterial pellets were washed with 10 mL buffer A (50 mM HEPES, pH 7.5, 300 mM NaCl, 5 mM β-mercaptoethanol, 1.0 mM EDTA) and centrifuged at 4 °C for 30 min at 4000 × g. […]
(In general: In western blotting, separated proteins are transferred to a membrane and probed.)

With Ac-RLTAFLHNRRPRLTAFLRQRR-NH2 [TEM3.2], the “SHV enzyme in inclusion body fraction, western blot (in words)” value is on record as “accumulates in IBs”.

The values are drawn from PMC10492782, “Exploiting the aggregation propensity of beta-lactamases to design inhibitors that induce enzyme misfolding” (Nature Communications, 2023).
